Data: patent publication US12389931B2, “Oyster peptide with effect of improving sexual function and preparation method thereof” (priority 2019, dated 2025)

Legend:
[1] = tested on: dihydrotestosterone secretion in TM3 cells; experiment: Dihydrotestosterone secreted by TM3 cells (ELISA); assay type: cell-based, mouse; settings: sildenafil 200 μg/mL, positive control in dihydrotestosterone test, FIG. 16
Protocol: 3. Dihydrotestosterone (DHT) Content
TM3 cells was cultured with the oyster peptide culture solution for 24 h, the obtained culture solution was centrifuged, a supernatant was taken and mixed uniformly, and the content of dihydrotestosterone was detected according to instructions of ELISA kit.
Operation procedure for detecting dihydrotestosterone: (1) Standards were added into standard wells at 50 μL/well. (2) 40 μL of sample diluent was added to sample wells and then 10 μL of the sample to be tested was added, and nothing was added to the blank wells. (3) The reaction wells were sealed with the plate-sealing film and incubated at 37° C. for 45 min. […] (10) A stop solution was added at 50 μL/well and mixed uniformly and then the OD450 value was measured.
Dihydrotestosterone is a steroid hormone secreted by testes and a main male hormone in the human body, is related to the development of male secondary sexual characteristics and plays an important role in maintaining normal sexual desire. In this test example, the oyster peptide culture solutions of Example 1 at different concentrations and the oyster peptide culture solutions of Examples 1-3 and Comparative Examples 1-4 at the same concentration were used to treat TM3 cells for 24 h, and then the supernatants of cells were collected, and the contents of dihydrotestosterone secreted by the cells were measured by the ELISA method. […]

NO content in TM3 cells = NO content in TM3 cells (NO determination kit); assay type: cell-based, mouse; settings: sildenafil 200 μg/mL, vs control group (p<0.05), FIG. 18
Protocol: 4. Detection of NO Content
TM3 cells were cultured with the oyster peptide culture solution for 24 h, the obtained culture solution was centrifuged, a supernatant was taken and mixed uniformly, and the content of NO was detected according to instructions of NO determination kit.
Operation procedure for detecting NO: (1) Reagent preparation: all reagents were taken out and equilibrated to room temperature for use. (2) 100 μM standard working solution: 5 μL of concentrated standard was added to 495 μL of reaction buffer and mixed well. […] After the incubation was over, the microplate was taken out, placed into an incubator at 37° C. and further incubated for 60 min, and then taken out and placed into a microplate reader for reading at 540 nm. (5) Quantitative calculation of total nitric oxide in samples:
NO is a small fat-soluble molecule with unstable chemical properties and is produced by a catalyzed reaction of nitric oxide synthase in a body, and it can cause the expansion of blood vessels in the body. […] The effect of the oyster peptide on the NO content in TM3 cells was detected according to the instructions of NO determination kit. […]

## CCCc1nn(C)c2c(=O)[nH]c(-c3cc(S(=O)(=O)N4CCN(C)CC4)ccc3OCC)nc12 [sildenafil]
[1]
  dihydrotestosterone secreted by TM3 cells: significantly promoting
NO content in TM3 cells
  NO content in TM3 cells: increased significantly
